According to patent US20250230193A1, “CYCLIC COMPOUND HAVING SELECTIVE KRAS INHIBITORY EFFECT ON HRAS AND NRAS” (CHUGAI SEIYAKU KABUSHIKI KAISHA, priority 2022, published 2025):
Where a SMILES comes first, the peptide text is derived from it. Bridges are numbered along the chain shown (N, C = ends). [ ]: non-standard residue; d: D form. The star is where a group is joined. hPhe(3-Cl-4-CF3) = N[C@@H](CCc1ccc(C(F)(F)F)c(Cl)c1)C(=O)O; NPrPhe(4-CF3) = CCCN[C@@H](Cc1ccc(C(F)(F)F)cc1)C(=O)O; NMeGly(cPent) = CN[C@H](C(=O)O)C1CCCC1; Pro(4,4-Me2) = CC1(C)CN[C@H](C(=O)O)C1; Pro(4S-Me) = C[C@@H]1CN[C@H](C(=O)O)C1; Hyp = O=C(O)[C@@H]1C[C@@H](O)CN1; NMeD = CN[C@@H](CC(=O)O)C(=O)O; NMeL = CN[C@@H](CC(C)C)C(=O)O; Morpholide = C1CN(*)CCO1; Ac5c = NC1(C(=O)O)CCCC1; Aze = O=C(O)[C@@H]1CCN1; Ac4c = NC1(C(=O)O)CCC1; NEtG = CCNCC(=O)O; Sar = CNCC(=O)O

Columns and labels:
[1] = molecular target: GDP-bound NRAS wild-type protein (Homo sapiens, UniProt P01111); assay: Binding to NRAS by surface plasmon resonance (SPR), Single Cycle Kinetics; settings: KD ratio NRAS/KRAS, SPR
[2] = molecular target: GDP-bound HRAS wild-type protein (Homo sapiens, UniProt P01112); assay: Binding to HRAS by surface plasmon resonance (SPR), Single Cycle Kinetics; settings: KD ratio HRAS/KRAS, SPR
GDP-bound HRAS wild-type protein, sequence (P01112 whole entry): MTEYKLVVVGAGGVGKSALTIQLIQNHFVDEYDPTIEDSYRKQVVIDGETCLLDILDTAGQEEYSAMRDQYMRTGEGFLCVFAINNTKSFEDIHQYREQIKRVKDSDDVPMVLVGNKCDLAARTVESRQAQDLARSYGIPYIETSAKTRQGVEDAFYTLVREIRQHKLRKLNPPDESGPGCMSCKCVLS

GDP-bound NRAS wild-type protein, sequence (P01111 whole entry): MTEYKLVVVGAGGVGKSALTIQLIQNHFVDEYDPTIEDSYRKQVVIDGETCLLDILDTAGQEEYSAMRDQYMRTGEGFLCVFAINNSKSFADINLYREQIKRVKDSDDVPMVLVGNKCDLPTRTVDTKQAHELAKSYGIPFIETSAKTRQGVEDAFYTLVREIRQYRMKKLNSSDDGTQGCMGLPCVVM

| SMILES | NRAS/KRAS (ratio of KD value with respect to GDP-bound NRAS wild-type protein to KD value with respect to KRAS) [1] | HRAS/KRAS (ratio of KD value with respect to GDP-bound HRAS wild-type protein to KD value with respect to KRAS) [2] |
| --- | --- | --- |
| CCCN1C(=O)[C@@H]2CCN2C(=O)CN(C)C(=O)[C@H]([C@@H](C)CC)NC(=O)[C@H](CC(C)C)N(C)C(=O)C[C@@H](C(=O)N(C)C)N(C)C(=O)[C@H](C2CCCC2)N(C)C(=O)C2(CCCC2)NC(=O)[C@@H]2C[C@@H](OCC)CN2C(=O)[C@H](CCc2ccc(C(F)(F)F)c(Cl)c2)NC(=O)CN(C)C(=O)[C@@H]1Cc1ccc(C(F)(F)F)cc1 [PP0444] ([NMeL]I[Sar][Aze][NPrPhe(4-CF3)][Sar][hPhe(3-Cl-4-CF3)][Hyp](Et)[Ac5c][NMeGly(cPent)][NMeD]-NMe2; lactam N-11) | C (A compound having a KD ratio of 0.1 or more and less than 3 is denoted as C) | C (A compound having a KD ratio of 0.1 or more and less than 3 is denoted as C) |
| CCCN1C(=O)[C@@H]2CCN2C(=O)CN(C)C(=O)[C@H]([C@@H](C)CC)NC(=O)[C@H](CC(C)C)N(C)C(=O)C[C@@H](C(=O)N(C)C)N(C)C(=O)[C@H](C2CCCC2)N(C)C(=O)C2(CCC2)NC(=O)[C@@H]2C[C@@H](OCC)CN2C(=O)[C@H](CCc2ccc(C(F)(F)F)c(Cl)c2)NC(=O)CN(C)C(=O)[C@@H]1Cc1ccc(C(F)(F)F)cc1 [PP0445] ([NMeL]I[Sar][Aze][NPrPhe(4-CF3)][Sar][hPhe(3-Cl-4-CF3)][Hyp](Et)[Ac4c][NMeGly(cPent)][NMeD]-NMe2; lactam N-11) | C (A compound having a KD ratio of 0.1 or more and less than 3 is denoted as C) | C (A compound having a KD ratio of 0.1 or more and less than 3 is denoted as C) |
| CCCN1C(=O)CN(C)C(=O)CN(C)C(=O)[C@H]([C@@H](C)CC)NC(=O)[C@H](CC(C)C)N(C)C(=O)C[C@@H](C(=O)N2CCOCC2)N(C)C(=O)[C@H](C2CCCC2)N(C)C(=O)C2(CCCC2)NC(=O)[C@@H]2CC(C)(C)CN2C(=O)[C@H](CCc2ccc(C(F)(F)F)c(Cl)c2)NC(=O)CN(C)C(=O)[C@@H]1Cc1ccc(C(F)(F)F)cc1 [PP0446] ([NMeL]I[Sar][Sar][NPrPhe(4-CF3)][Sar][hPhe(3-Cl-4-CF3)][Pro(4,4-Me2)][Ac5c][NMeGly(cPent)][NMeD]-Morpholide; lactam N-11) | B (a compound having 3 or more and less than 10 is denoted as B) | C (A compound having a KD ratio of 0.1 or more and less than 3 is denoted as C) |
| CCCN1C(=O)CN(C)C(=O)CN(C)C(=O)[C@H]([C@@H](C)CC)NC(=O)[C@H](CC(C)C)N(C)C(=O)C[C@@H](C(=O)N2CCOCC2)N(C)C(=O)[C@H](C2CCCC2)N(C)C(=O)C2(CCCC2)NC(=O)[C@@H]2C[C@H](C)CN2C(=O)[C@H](CCc2ccc(C(F)(F)F)c(Cl)c2)NC(=O)CN(C)C(=O)[C@@H]1Cc1ccc(C(F)(F)F)cc1 [PP0447] ([NMeL]I[Sar][Sar][NPrPhe(4-CF3)][Sar][hPhe(3-Cl-4-CF3)][Pro(4S-Me)][Ac5c][NMeGly(cPent)][NMeD]-Morpholide; lactam N-11) | B (a compound having 3 or more and less than 10 is denoted as B) | C (A compound having a KD ratio of 0.1 or more and less than 3 is denoted as C) |
| CCCN1C(=O)CN(C)C(=O)CNC(=O)[C@H]([C@@H](C)CC)NC(=O)[C@H](CC(C)C)N(C)C(=O)C[C@@H](C(=O)N2CCOCC2)N(C)C(=O)[C@H](C2CCCC2)N(C)C(=O)C2(CCCC2)NC(=O)[C@@H]2CC(C)(C)CN2C(=O)[C@H](CCc2ccc(C(F)(F)F)c(Cl)c2)NC(=O)CN(C)C(=O)[C@@H]1Cc1ccc(C(F)(F)F)cc1 [PP0448] ([NMeL]IG[Sar][NPrPhe(4-CF3)][Sar][hPhe(3-Cl-4-CF3)][Pro(4,4-Me2)][Ac5c][NMeGly(cPent)][NMeD]-Morpholide; lactam N-11) | B (a compound having 3 or more and less than 10 is denoted as B) | C (A compound having a KD ratio of 0.1 or more and less than 3 is denoted as C) |
| CCCN1C(=O)CN(C)C(=O)CNC(=O)[C@H]([C@@H](C)CC)NC(=O)[C@H](CC(C)C)N(C)C(=O)C[C@@H](C(=O)N2CCOCC2)N(C)C(=O)[C@H](C2CCCC2)N(C)C(=O)C2(CCCC2)NC(=O)[C@@H]2C[C@H](C)CN2C(=O)[C@H](CCc2ccc(C(F)(F)F)c(Cl)c2)NC(=O)CN(C)C(=O)[C@@H]1Cc1ccc(C(F)(F)F)cc1 [PP0449] ([NMeL]IG[Sar][NPrPhe(4-CF3)][Sar][hPhe(3-Cl-4-CF3)][Pro(4S-Me)][Ac5c][NMeGly(cPent)][NMeD]-Morpholide; lactam N-11) | C (A compound having a KD ratio of 0.1 or more and less than 3 is denoted as C) | C (A compound having a KD ratio of 0.1 or more and less than 3 is denoted as C) |
| CCCN1C(=O)CN(C)C(=O)CN(CC)C(=O)[C@H]([C@@H](C)CC)NC(=O)[C@H](CC(C)C)N(C)C(=O)C[C@@H](C(=O)N2CCOCC2)N(C)C(=O)[C@H](C2CCCC2)N(C)C(=O)C2(CCCC2)NC(=O)[C@@H]2CC(C)(C)CN2C(=O)[C@H](CCc2ccc(C(F)(F)F)c(Cl)c2)NC(=O)CN(C)C(=O)[C@@H]1Cc1ccc(C(F)(F)F)cc1 [PP0450] ([NMeL]I[NEtG][Sar][NPrPhe(4-CF3)][Sar][hPhe(3-Cl-4-CF3)][Pro(4,4-Me2)][Ac5c][NMeGly(cPent)][NMeD]-Morpholide; lactam N-11) | B (a compound having 3 or more and less than 10 is denoted as B) | C (A compound having a KD ratio of 0.1 or more and less than 3 is denoted as C) |
| CCCN1C(=O)CN(C)C(=O)[C@@H]2CCN2C(=O)[C@H]([C@@H](C)CC)NC(=O)[C@H](CC(C)C)N(C)C(=O)C[C@@H](C(=O)N2CCOCC2)N(C)C(=O)[C@H](C2CCCC2)N(C)C(=O)C2(CCCC2)NC(=O)[C@@H]2CC(C)(C)CN2C(=O)[C@H](CCc2ccc(C(F)(F)F)c(Cl)c2)NC(=O)CN(C)C(=O)[C@@H]1Cc1ccc(C(F)(F)F)cc1 [PP0452] ([NMeL]I[Aze][Sar][NPrPhe(4-CF3)][Sar][hPhe(3-Cl-4-CF3)][Pro(4,4-Me2)][Ac5c][NMeGly(cPent)][NMeD]-Morpholide; lactam N-11) | B (a compound having 3 or more and less than 10 is denoted as B) | B (a compound having 3 or more and less than 10 is denoted as B) |
| CCCN1C(=O)CN(C)C(=O)[C@@H]2CCN2C(=O)[C@H]([C@@H](C)CC)NC(=O)[C@H](CC(C)C)N(C)C(=O)C[C@@H](C(=O)N2CCOCC2)N(C)C(=O)[C@H](C2CCCC2)N(C)C(=O)C2(CCCC2)NC(=O)[C@@H]2C[C@H](C)CN2C(=O)[C@H](CCc2ccc(C(F)(F)F)c(Cl)c2)NC(=O)CN(C)C(=O)[C@@H]1Cc1ccc(C(F)(F)F)cc1 [PP0453] ([NMeL]I[Aze][Sar][NPrPhe(4-CF3)][Sar][hPhe(3-Cl-4-CF3)][Pro(4S-Me)][Ac5c][NMeGly(cPent)][NMeD]-Morpholide; lactam N-11) | B (a compound having 3 or more and less than 10 is denoted as B) | C (A compound having a KD ratio of 0.1 or more and less than 3 is denoted as C) |
